# Laboratory results published in patent publication US4434096A, “Substrates for the quantitative determination of proteolytic enzymes” (E. I. Du Pont de Nemours and Company, priority 1981, dated 1984).
# Square brackets hold non-standard residues; d marks the D form. Peptide text beside a SMILES is read from it. * marks the point of attachment. SBn = c1ccc(CS*)cc1
# Molecular target: human α-thrombin (Homo sapiens, UniProt P00734)
# Experiment: Kinetics of substrate hydrolysis by proteolytic enzyme (initial rates, centrifugal analyzer, Hanes plot)
# Type: biochemical
# Details: substrate for human α-thrombin
# From the text: The Michaelis-Menten constant, Km, is a kinetic parameter related to the affinity of a substrate for an enzyme under a given set of reaction conditions. The Km is defined as the substrate concentration at which the initial reaction velocity is one-half of the maximal initial reaction velocity. The maximal velocity (vmax), another important kinetic parameter, when divided by the enzyme concentration, yields kcat. The determination of Km and kcat for a given substrate with various enzymes allows the determination of the selectivity of that substrate for a given enzyme.
# Km and vmax values can be determined by utilizing a centrifugal analyzer (GEMSAEC system, available from Electro-Nucleonics, Inc., Fairfield, N.J.) to measure the initial rates of substrate hydrolysis by the proteolytic enzyme. Five substrate concentrations ([S]), ranging from about one-fifth to five times the expected Km, can be used for triplicate determinations in this centrifugal analyzer. The initial reaction rates (v) can then be plotted in a Hanes plot, [S]/v versus [S], for a determination of Km (the absolute value of the X-intercept) and vmax (the reciprocal of the slope) through linear regression analysis. Alternative procedures are available for the calculation of Km and vmax.
# For a given enzyme, lower Km values for a series of substrates indicate higher affinity of the substrate to the enzyme. This allows the utilization of lesser amounts of substrate while still operating at vmax.
SMILES,Km,kcat
CC(C)C[C@H](NC(=O)[C@H](N)C(C)C)C(=O)N[C@@H](CCCCN)C(=O)SCc1ccccc1 [H--D-Val--Leu--Lys--S--Bzl] (H-[dV]-Leu-Lys-SBn),16 µM,94 s⁻¹
NCCCC[C@H](NC(=O)OCc1ccccc1)C(=O)SCc1ccccc1 [Z--Lys--S--Bzl],38 µM,84 s⁻¹
